# Test results published in patent US20260159525A1, “TRICYCLIC HETEROCYCLES” (Merck Patent GmbH, priority 2021, published 2026).
# Tested on: YAP-TEAD interaction
# Experiment: SK-HEP-1 reporter assay (8x TEAD responsive elements driving NanoLuc luciferase)
# Type: cell-based
# Settings: Homo sapiens, SK-HEP1, SK-HEP-1 cells, 24 hour incubation
# Method: To identify inhibitors of YAP-TEAD interaction, 8× TEAD responsive elements driving the NanoLuc® luciferase gene were stably integrated into SK-HEP-1 cells (ECACC #: 91091816).
# For the assay, cells were treated in duplicates with the test compounds in a 10-point dose, with the top concentration starting at 30 μM (final concentration in assay). After a 24 hour incubation at 37° C., 95% rH, and 5% CO2, a luciferase substrate/lysis reagent mix (NanoGlo™, Promega) was added to the cells, allowing the quantification of cellular luciferase activity.
# Cell Media: The cells were cultured in the following media: MEM, +10% FBS, +1× GlutaMAX, +1 mM Sodium-Pyruvate, +100 μM Non-essential amino acids, +0.1 mg/ml Hygromycin. The media used for the assay was: MEM (w/o Phenol Red), +10% FBS, +1× GlutaMAX, +1 mM Sodium-Pyruvate, +100 μM Non-essential amino acids, +0.5% Pen/Strep
# Reagents: The reagents used are listed below:
# Cell culture: The cells were examined using an inverted microscope to check for health and cell density. To dissociate adherent cells, the monolayer of cells was washed once with pre-warmed PBS. After removing the PBS, 3 ml pre-warmed Accutase® was added to a F75 flask, dispersed evenly and the flask was allowed to sit in incubator for ˜4-5 minutes.
# When a single cell suspension was obtained, 7 ml of prewarmed growth media was added and resuspended with the cells. The cell suspension was transferred to a sterile 15 ml conical centrifuge tube, and spun for 5 min at 300×g, RT. The supernatant was discarded and the pellet was resuspended in 10 ml of pre-warmed growth media.
# The total cell count was determined, and 20 μl of the desired cell number was added to each well of a 384 well plate using a Multidrop Combi. The plates were then incubated for 24 hours at 37° C., 95% rH, and 5% CO2.
# Compound treatment: 24 hours after seeding, the cells were treated with compounds.
# A 1:333 dilution of compounds, diluted in DMSO, was made to get a final concentration of 0.3% DMSO per well. To transfer the compounds to the assay plate, 120 nl was shot from Labcyte low dead volume plates to the cell plates containing 20 μl media/well with the ECHO 555 liquid handling system. After treatment, the cells were fed with 20 μl fresh pre-warmed assay media using a Multidrop combi.
# The assay plates were then incubated for another 24 h at 37° C., 95% rH, and 5% CO2.
# Luciferase readout: 24 h after treatment, the plates were taken out of the incubator and were allowed to equilibrate to RT. 30 μl of NanoGlo® reagent was added to the plates in the dark. Plates were shaken for 20 min on a Teleshake (˜1500 rpm) in the dark. The luminescence was then measured using an EnVision microplate reader. The IC50 values were generated using Genedata Screener®.
# [1] = number, or n.d. (x) = not detectable below threshold x
IC50 [1],IC50 (group symbols),Structure (SMILES)
> 9.5 µM,,"Cn1cc2c3cc(C(=O)NC(CO)C4CCC4)sc3n(-c3ccc(C(F)(F)F)cc3)c2n1 (racemic) [Compound 57, N-(1-cyclobutyl-2-hydroxyethyl)-4-methyl-7-[4-(trifluoromethyl)phenyl]-9-thia-4,5,7-triazatricyclo[6.3.0.0^2,6]undeca-1(8),2,5,10-tetraene-10-carboxamide]"
> 9.5 µM,,"Cn1cc2c3cc(C(=O)N[C@@H](CO)C4CCC4)sc3n(-c3ccc(C(F)(F)F)cc3)c2n1 (single isomer, unassigned) [Compound 55]"
> 9.5 µM,,"Cn1cc2c3cc(C(=O)N[C@H](CO)C4CCC4)sc3n(-c3ccc(C(F)(F)F)cc3)c2n1 (single isomer, unassigned) [Compound 56]"
,> 10 µM,"COCC[C@H](CO)NC(=O)c1cc2c3cn(C)nc3n(-c3ccc(C(F)(F)F)cc3)c2s1 (single isomer, unassigned) [Compound 58]"
> 30 µM,,"Cn1cc2c3cc(C(=O)NC[C@@H](O)CO)sc3n(-c3ccc(C(F)(F)F)cc3)c2n1 (single isomer, unassigned) [Compound 128]"
> 0.95 µM,,"Cn1cc2c3cc(C(=O)NC[C@H](O)CO)sc3n(-c3ccc(C(F)(F)F)cc3)c2n1 (single isomer, unassigned) [Compound 129]"
> 0.095 µM,,"Cn1ccc([C@H](CO)NC(=O)c2cc3c4cn(C)nc4n(-c4ccc(C(F)(F)F)cc4)c3s2)n1 (single isomer, unassigned) [Compound 131]"
,0.1 to 10 µM,"Cn1nc2c3sc(C(=O)NC4CC4)cc3n(-c3ccc(C(F)(F)F)cc3)c2n1 [Compound 6, N-cyclopropyl-4-methyl-7-[4-(trifluoromethyl)phenyl]-11-thia-3,4,5,7-tetraazatricyclo[6.3.0.0^2,6]undeca-1(8),2,5,9-tetraene-10-carboxamide]"
,> 10 µM,"Cn1nc2c3sc(C(=O)NCCO)cc3n(-c3ccc(C(F)(F)F)cc3)c2n1 [Compound 7, N-(2-hydroxyethyl)-4-methyl-7-[4-(trifluoromethyl)phenyl]-11-thia-3,4,5,7-tetraazatricyclo[6.3.0.0^2,6]undeca-1(8),2,5,9-tetraene-10-carboxamide]"
,0.1 to 10 µM,"Cn1nc2c3sc(C(=O)N4CCC(O)C4)cc3n(-c3ccc(C(F)(F)F)cc3)c2n1 (stereo not drawn) [Compound 9, 1-{4-methyl-7-[4-(trifluoromethyl)phenyl]-11-thia-3,4,5,7-tetraazatricyclo[6.3.0.0^2,6]undeca-1(8),2,5,9-tetraene-10-carbonyl}pyrrolidin-3-ol]"
,> 10 µM,"Cn1cc2c3sc(C(=O)NCCO)cc3n(-c3ccc(C(F)(F)F)cc3)c2n1 [Compound 13, N-(2-hydroxyethyl)-10-methyl-7-[4-(trifluoromethyl)phenyl]-3-thia-7,9,10-triazatricyclo[6.3.0.0^2,6]undeca-1(11),2(6),4,8-tetraene-4-carboxamide]"
,> 10 µM,"Cn1cc2c3sc(C(=O)N[C@@H](CO)c4ccccn4)cc3n(-c3ccc(C(F)(F)F)cc3)c2n1 [Compound 14, N-[(1R)-2-hydroxy-1-(pyridin-2-yl)ethyl]-10-methyl-7-[4-(trifluoromethyl)phenyl]-3-thia-7,9,10-triazatricyclo[6.3.0.0^2,6]undeca-1(11),2(6),4,8-tetraene-4-carboxamide]"
,> 10 µM,"C[C@H](CO)NC(=O)c1cc2c(s1)c1cn(C)nc1n2-c1ccc(C(F)(F)F)cc1 [Compound 16, N-[(2R)-1-hydroxypropan-2-yl]-10-methyl-7-[4-(trifluoromethyl)phenyl]-3-thia-7,9,10-triazatricyclo[6.3.0.0^2,6]undeca-1(11),2(6),4,8-tetraene-4-carboxamide]"
,> 10 µM,"CNC(=O)c1cc2c(s1)c1nc(C)sc1n2-c1ccc(C(F)(F)F)cc1 [Compound 23, N,4-dimethyl-7-[4-(trifluoromethyl)phenyl]-5,11-dithia-3,7-diazatricyclo[6.3.0.0^2,6]undeca-1(8),2(6),3,9-tetraene-10-carboxamide]"
,0.1 to 10 µM,"Cn1cc2c3sc(C(=O)O)cc3n(CCC(C)(C)C(F)(F)F)c2n1 [Compound 24, 10-methyl-7-(4,4,4-trifluoro-3,3-dimethylbutyl)-3-thia-7,9,10-triazatricyclo[6.3.0.0^2,6]undeca-1(11),2(6),4,8-tetraene-4-carboxylic acid]"
,0.1 to 10 µM,"CNC(=O)c1cc2c(s1)c1nc(C)sc1n2-c1ccc(OC(F)(F)F)cc1 [Compound 26, N,4-dimethyl-7-[4-(trifluoromethoxy)phenyl]-5,11-dithia-3,7-diazatricyclo[6.3.0.0^2,6]undeca-1(8),2(6),3,9-tetraene-10-carboxamide]"
,> 10 µM,"Cn1nc2c3sc(C(N)=O)cc3n(-c3ccc(C(F)(F)F)cc3)c2n1 [Compound 28, 4-methyl-7-[4-(trifluoromethyl)phenyl]-11-thia-3,4,5,7-tetraazatricyclo[6.3.0.0^2,6]undeca-1(8),2,5,9-tetraene-10-carboxamide]"
,> 10 µM,"CNC(=O)c1cc2c(s1)c1nn(C)nc1n2-c1ccc(OC(F)(F)F)cc1 [Compound 29, N,4-dimethyl-7-[4-(trifluoromethoxy)phenyl]-11-thia-3,4,5,7-tetraazatricyclo[6.3.0.0^2,6]undeca-1(8),2,5,9-tetraene-10-carboxamide]"
,0.1 to 10 µM,"Cn1nc2c3sc(C(=O)NC4CC4)cc3n(-c3ccc(OC(F)(F)F)cc3)c2n1 [Compound 30, N-cyclopropyl-4-methyl-7-[4-(trifluoromethoxy)phenyl]-11-thia-3,4,5,7-tetraazatricyclo[6.3.0.0^2,6]deca-1(8),2,5,9-tetraene-10-carboxamide]"
,0.1 to 10 µM,"Cn1nc2c3sc(C(N)=O)cc3n(-c3ccc(OC(F)(F)F)cc3)c2n1 [Compound 38, 4-methyl-7-[4-(trifluoromethoxy)phenyl]-11-thia-3,4,5,7-tetraazatricyclo[6.3.0.0^2,6]undeca-1(8),2,5,9-tetraene-10-carboxamide]"
,0.1 to 10 µM,"CNC(=O)c1cc2c(s1)c1cn(C)nc1n2C[C@H]1C[C@@H](C(F)(F)F)C1 [Compound 39, N,10-dimethyl-7-{[(1s,3s)-3-(trifluoromethyl)cyclobutyl]methyl}-3-thia-7,9,10-triazatricyclo[6.3.0.0^2,6]undeca-1(11),2(6),4,8-tetraene-4-carboxamide]"
,0.001 to 0.01 µM,"Cn1cc2c3cc(C(=O)O)sc3n(-c3ccc(C(F)(F)F)cn3)c2n1 [Compound 53, 4-methyl-7-[5-(trifluoromethyl)pyridin-2-yl]-9-thia-4,5,7-triazatricyclo[6.3.0.0^2,6]undeca-1(8),2,5,10-tetraene-10-carboxylic acid]"
,0.001 to 0.01 µM,"Cn1cc2c3cc(C(=O)O)sc3n(-c3ccc(OC(F)(F)F)cc3)c2n1 [Compound 54, 4-methyl-7-[4-(trifluoromethoxy)phenyl]-9-thia-4,5,7-triazatricyclo[6.3.0.0^2,6]undeca-1(8),2,5,10-tetraene-10-carboxylic acid]"
,0.1 to 10 µM,"Cn1cc2c3cc(C(=O)NCC4CNC4)sc3n(-c3ccc(C(F)(F)F)cc3)c2n1 [Compound 60, N-[(azetidin-3-yl)methyl]-4-methyl-7-[4-(trifluoromethyl)phenyl]-9-thia-4,5,7-triazatricyclo[6.3.0.0^2,6]undeca-1(8),2,5,10-tetraene-10-carboxamide]"
> 3 µM,,"CC(=O)NCCOCCOCCNC(=O)c1cc2c3cn(C)nc3n(-c3ccc(C(F)(F)F)cc3)c2s1 [Compound 73, N-(2-{2-[2-({4-methyl-7-[4-(trifluoromethyl)phenyl]-9-thia-4,5,7-triazatricyclo[6.3.0.0^2,6]undeca-1(8),2,5,10-tetraen-10-yl}formamido)ethoxy]ethoxy}ethyl)acetamide]"
,0.01 to 0.1 µM,"Cn1cc2c3cc(C(=O)O)sc3n(-c3ccc(C(F)(F)F)nc3)c2n1 [Compound 81, 4-methyl-7-[6-(trifluoromethyl)pyridin-3-yl]-9-thia-4,5,7-triazatricyclo[6.3.0.0^2,6]undeca-1(8),2,5,10-tetraene-10-carboxylic acid]"
,0.1 to 10 µM,"CC[C@@H](O)CNC(=O)c1cc2c3cn(C)nc3n(-c3ccc(C(F)(F)F)cc3)c2s1 [Compound 82, N-[(2R)-2-hydroxybutyl]-4-methyl-7-[4-(trifluoromethyl)phenyl]-9-thia-4,5,7-triazatricyclo[6.3.0.0^2,6]undeca-1(8),2,5,10-tetraene-10-carboxamide]"
